# Measured values published in patent US20240301494A1, “IDENTIFICATION AND TREATMENT OF PATIENTS WITH EPILEPSY” (GW Research Limited, priority 2020, published 2024).
# Tests used:
# Type in all cases: in vivo, human
# [1] = test system: patients with treatment-resistant epilepsy (TRE); assay: Multivariable model of CBD response in treatment-resistant epilepsy
# Protocol: Receiver operator curves (ROC) were generated and the area under the curve (AUC) was evaluated to compare clinical, genetic, and combined clinical+genetic models. Epistasis was evaluated in PLINK to identify potential interactions among variants included in the final response model.
# [2] = test system: patients with treatment-resistant epilepsy (TRE); assay: CBD response (percent change in seizure frequency) in open-label Expanded Access Program; settings: for Maintenance seizure frequency, Mean ± SD: per 28 days; for Percent change seizure frequency, Mean ± SD: vs baseline
# Description: (§1) All patients (or caregivers) were instructed to keep seizure diaries, which were verified during in-person visits. At each clinic visit, data on concomitant AEDs, CBD maintenance dose (mg/kg/day), seizure frequencies, and adverse events were collected.
# [3] = test system: patients with treatment-resistant epilepsy (TRE); assay: CBD tolerability: adverse events (MedDRA) in open-label Expanded Access Program
# Protocol: as §1
# Adverse effects were classified according to the Medical Dictionary for Regulatory Activities (MedDRA, V17.1), and those that differed by response status (diarrhoea, sedation, and abnormal liver function tests (LFTs)) were evaluated in the genetic analyses.
# [4] = test system: patients with treatment-resistant epilepsy (TRE); assay: Single-marker association of genetic variants (DMET plus array) with CBD-related adverse effects, logistic regression
# Protocol: (§2) Baseline data collection included demographics, seizure frequencies/severity, concomitant AEDs, and laboratory data.
# CLIA-certified genotyping on the Affymetrix Drug Metabolizing Enzymes and Transporters (DMET) plus array was performed through the Coriell Institute for Medical Research (Camden, NJ) in two batches, with nine samples re-genotyped due to low call rates. The DMET plus array interrogates 1,936 markers (1,931 variants and 5 copy number regions) across ˜230 drug-related genes. Affymetrix DMET Console software® (version 1.3) was used to generate genotype profiles.
# Hardy-Weinberg equilibrium was evaluated, and variants p<0.0001 were further evaluated by race.
# Treatment group (adult vs paediatric), race, and sex were included as covariates in all analyses.
# (§3) A permutation approach was used to account for multiple testing (number of permutations: 1,000), since other methods (e.g. Bonferroni correction) assume independence between markers and likely be overly conservative.
# [5] = test system: patients with treatment-resistant epilepsy (TRE); assay: Single-marker association of genetic variants (DMET plus array) with CBD response, logistic regression
# Protocol: as §2
# CLIA-certified genotyping on the Affymetrix Drug Metabolizing Enzymes and Transporters (DMET) plus array was performed through the Coriell Institute for Medical Research (Camden, NJ) in two batches, with nine samples re-genotyped due to low call rates. The DMET plus array interrogates 1,936 markers (1,931 variants and 5 copy number regions) across ˜230 drug-related genes. Affymetrix DMET Console software® (version 1.3) was used to generate genotype profiles. Of the 1,931 variants, 1,328 were removed due to location on the X-chromosome or a minor allele frequency <0.05.
# Hardy-Weinberg equilibrium was evaluated, and variants p<0.0001 were further evaluated by race. Variants in linkage disequilibrium (LD) were removed (n=212; r2=0.5), leaving 396 variants in the analyses.
# Relationships between variants and CBD response/tolerability were tested under dominant (AA vs Ab+bb) and recessive (AA+Ab vs bb) models using logistic regression in PLINK. Treatment group (adult vs paediatric), race, and sex were included as covariates in all analyses.
# as §3
structure (smiles),measurement,setting,value
"C=C(C)[C@@H]1CCC(C)=C[C@H]1c1c(O)cc(CCCCC)cc1O [CBD, cannabidiol]","OR of CBD response, multivariable model",[1]; ABP1 (AOC1) rs12539,5.67
same,"OR of CBD response, multivariable model",[1]; CHST11 rs903247,5.03
same,"OR of CBD response, multivariable model",[1]; DPYD rs1801265,4.50
same,"OR of CBD response, multivariable model",[1]; FMO2 rs7515157 (recessive),0.06
same,"OR of CBD response, multivariable model",[1]; GSTM5 rs2479390,0.15
same,"OR of CBD response, multivariable model",[1]; GSTP1 rs1695 (recessive),0.03
same,"OR of CBD response, multivariable model",[1]; SLC7A7 rs1061040,5.04
same,"OR of CBD response, multivariable model",[1]; UGT2B4 rs1966151,5.02
same,"OR of CBD response, multivariable model",[1]; predictor: CBD dose (mg/kg/day),1.07
same,"Therapeutic response (≥50% reduction), share of patients",[2]; 112 genotyped TRE patients,56.3%
same,"Maintenance seizure frequency, Median",[2]; Non-Responders (N = 49),14.73
same,"Percent change seizure frequency, Median",[2]; Non-Responders (N = 49),−14.3%
same,"Maintenance seizure frequency, Mean ± SD",[2]; Non-Responders (N = 49),108.52 ± 327.05
same,"Percent change seizure frequency, Mean ± SD",[2]; Non-Responders (N = 49),5.65 ± 59.13%
same,"Maintenance seizure frequency, Median",[2]; Overall (N = 112),7.76
same,"Percent change seizure frequency, Median",[2]; Overall (N = 112),−53.9%
same,"Maintenance seizure frequency, Mean ± SD",[2]; Overall (N = 112),58.54 ± 222.27
same,"Percent change seizure frequency, Mean ± SD",[2]; Overall (N = 112),−42.08 ± 58.76%
same,"Maintenance seizure frequency, Median",[2]; Responders (N = 63),4.50
same,"Percent change seizure frequency, Median",[2]; Responders (N = 63),−82%
same,"Maintenance seizure frequency, Mean ± SD",[2]; Responders (N = 63),19.65 ± 46.09
same,"Percent change seizure frequency, Mean ± SD",[2]; Responders (N = 63),−79.20 ± 16.58%
same,"Therapeutic response (≥50% reduction), number of patients",[2]; of 112 patients,63
same,"Adverse event Abnormal liver function tests, %",[3]; Non-Responders (N = 49),(4.1%)
same,"Adverse event Decreased appetite, %",[3]; Non-Responders (N = 49),(6.1%)
same,"Adverse event Depressed mood, %",[3]; Non-Responders (N = 49),(14.3%)
same,"Adverse event Diarrhoea, %",[3]; Non-Responders (N = 49),(44.9%)
same,"Adverse event Nausea/vomiting, %",[3]; Non-Responders (N = 49),(10.2%)
same,"Adverse event Sedation, %",[3]; Non-Responders (N = 49),(44.9%)
same,"Weight Change: 10-20% Weight loss, %",[3]; Non-Responders (N = 49),(24.5%)
same,"Weight Change: <10% Weight loss, %",[3]; Non-Responders (N = 49),(53.1%)
same,"Weight Change: >20% Weight loss, %",[3]; Non-Responders (N = 49),(6.1%)
same,"Weight Change: No Change or increase, %",[3]; Non-Responders (N = 49),(16.3%)
same,"Adverse event Abnormal liver function tests, %",[3]; Overall (N = 112),(10.7%)
same,"Adverse event Decreased appetite, %",[3]; Overall (N = 112),(10.7%)
same,"Adverse event Depressed mood, %",[3]; Overall (N = 112),(10.7%)
same,"Adverse event Diarrhoea, %",[3]; Overall (N = 112),(58.9%)
same,"Adverse event Nausea/vomiting, %",[3]; Overall (N = 112),(12.5%)
same,"Adverse event Sedation, %",[3]; Overall (N = 112),(34.8%)
same,"Weight Change: 10-20% Weight loss, %",[3]; Overall (N = 112),(20.5%)
same,"Weight Change: <10% Weight loss, %",[3]; Overall (N = 112),(51.8%)
same,"Weight Change: >20% Weight loss, %",[3]; Overall (N = 112),(8.0%)
same,"Weight Change: No Change or increase, %",[3]; Overall (N = 112),(19.6%)
same,"Adverse event Abnormal liver function tests, %",[3]; Responders (N = 63),(15.9%)
same,"Adverse event Decreased appetite, %",[3]; Responders (N = 63),(14.3%)
same,"Adverse event Depressed mood, %",[3]; Responders (N = 63),(7.9%)
same,"Adverse event Diarrhoea, %",[3]; Responders (N = 63),(69.8%)
same,"Adverse event Nausea/vomiting, %",[3]; Responders (N = 63),(14.3%)
same,"Adverse event Sedation, %",[3]; Responders (N = 63),(27.0%)
same,"Weight Change: 10-20% Weight loss, %",[3]; Responders (N = 63),(17.5%)
same,"Weight Change: <10% Weight loss, %",[3]; Responders (N = 63),(50.8%)
same,"Weight Change: >20% Weight loss, %",[3]; Responders (N = 63),(9.5%)
same,"Weight Change: No Change or increase, %",[3]; Responders (N = 63),(22.2%)
same,association of variant with CBD-associated sedation,[4]; ABCB1 rs1045642,decreased sedation
same,increased likelihood of abnormal LFTs,"[4]; APOA2 rs5085, recessive",6 fold
same,association of variant with CBD-associated sedation,[4]; COMT rs4680 recessive wild-type G alleles,decreased sedation
same,increased likelihood of diarrhoea,[4]; CYP2A6 rs28399433,10 fold
same,association of variant with CBD-associated sedation,[4]; CYP2C19 rs3758581,decreased sedation
same,increased likelihood of diarrhoea,[4]; CYP39A1 rs7761731,~9 fold
same,increased likelihood of diarrhoea,[4]; FMO6 rs2272797,~5 fold
same,increased odds of abnormal LFTs,"[4]; SLC22A2 rs316003, recessive",~11 fold
same,increased odds of abnormal LFTs,"[4]; SLC22A5 rs274548, recessive",~15 fold
same,increased odds of abnormal LFTs,"[4]; SLC22A11 rs1783811, recessive",~6 fold
same,association of variant with CBD-associated sedation,[4]; TPMT rs2842934,decreased sedation
same,association of variant with CBD-associated sedation,[4]; UGT2A1 rs4148304 missense variant,decreased odds of sedation
same,association of variant with CBD-associated diarrhoea,[4]; UGT2A1 rs11249454 intron variant,decreased odds of diarrhoea
same,increased likelihood of response,"[5]; AOX1 rs6729738, recessive",6 fold
same,increased odds of response,[5]; CHST11 rs903247,4 fold
same,decreased likelihood of response,[5]; GSTM5 rs2479390,72%
same,decreased likelihood of response,[5]; GSTP1 rs1695 (recessive),87%
same,increased likelihood of response,[5]; SULT1A2 rs1059491 (recessive),17 fold
same,increased odds of response,[5]; UGT2B4 rs1966151,4 fold
